Test results as given in patent US12384771B2, “Pleuromutilin derivative containing thiazole-pyridine benzyl quaternary ammonium salt side chain and preparation method and use thereof” (SHAANXI UNIVERSITY OF SCIENCE AND TECHNOLOGY, priority 2022, dated 2025).
Converted amounts (≈) assume the structure as drawn. Structures can show the parent of a compound that is named as a salt.

Legend:
[1] = system: multidrug-resistant Klebsiella pneumoniae (MDR-KP) 18-754; test: MIC, clinical drug-resistant bacteria; format: cell-based; conditions: MDR-KP 18-754, read-out: Minimum inhibitory concentration against clinical drug-resistant bacteria
Procedure: (§1) The minimum inhibitory concentration (MIC) of the pleuromutilin derivative containing thiazole-pyridine benzyl quaternary ammonium salt side chain was tested with moxifloxacin as a positive control (purchased from Shanghai Macklin Biochemical Technology Co., Ltd.) using a microbroth dilution method. At the same time, the pleuromutilin derivative containing thiazole-pyridine benzyl quaternary ammonium salt side chain of the invention was compared with the marketed pleuromutilin antibiotics, such as retapamulin (purchased from Nanjing Chemlin Chemical Industry Co., Ltd.), tiamulin (purchased from Shanghai Yuanye Bio-Technology Co., Ltd) and valnemulin (purchased from Shanghai Acmec Biochemical Co., Ltd), in order to screen out pleuromutilin derivatives with better activity.
(§2) Clinical resistant bacteria include multidrug-resistant Pseudomonas aeruginosa (MDR-PA) 18-993, 18-756 and 18-126, multidrug-resistant Klebsiella pneumoniae (MDR-KP) 18-893, 18-754 and 18-1482, methicillin-resistant Staphylococcus aureus (MRSA) 18-171, 18-209 and 18-575, vancomycin-resistant Enterococcus faecalis (VRE) 18-94, 18-80 and 18-507, and carbapenem-resistant Acinetobacter baumannii (CR-AB) 18-184, 18-560 and 18-882, all the clinical drug-resistant strains were from Huashan Hospital, Fudan University.

[2] = system: methicillin-resistant Staphylococcus aureus (MRSA) 18-171; test: MIC, clinical drug-resistant bacteria; format: cell-based; conditions: MRSA 18-171, read-out: Minimum inhibitory concentration against clinical drug-resistant bacteria
Procedure: as §1, §2

[3] = system: vancomycin-resistant Enterococcus faecalis (VRE) 18-94; test: MIC, clinical drug-resistant bacteria; format: cell-based; conditions: VRE 18-94; read-out: Minimum inhibitory concentration against clinical drug-resistant bacteria
Procedure: as §1, §2

[4] = system: carbapenem-resistant Acinetobacter baumannii (CR-AB) 18-184; test: MIC, clinical drug-resistant bacteria; format: cell-based; conditions: CR-AB 18-184, read-out: Minimum inhibitory concentration against clinical drug-resistant bacteria
Procedure: as §1, §2

[5] = system: multidrug-resistant Pseudomonas aeruginosa (MDR-PA) 18-756; test: MIC, clinical drug-resistant bacteria; format: cell-based; conditions: MDR-PA 18-756, read-out: Minimum inhibitory concentration against clinical drug-resistant bacteria
Procedure: as §1, §2

[6] = system: carbapenem-resistant Acinetobacter baumannii (CR-AB) 18-560; test: MIC, clinical drug-resistant bacteria; format: cell-based; conditions: CR-AB 18-560, read-out: Minimum inhibitory concentration against clinical drug-resistant bacteria
Procedure: as §1, §2

[7] = system: methicillin-resistant Staphylococcus aureus (MRSA) 18-209; test: MIC, clinical drug-resistant bacteria; format: cell-based; conditions: MRSA 18-209, read-out: Minimum inhibitory concentration against clinical drug-resistant bacteria
Procedure: as §1, §2

[8] = system: multidrug-resistant Klebsiella pneumoniae (MDR-KP) 18-1482; test: MIC, clinical drug-resistant bacteria; format: cell-based; conditions: MDR-KP 18-1482, read-out: Minimum inhibitory concentration against clinical drug-resistant bacteria
Procedure: as §1, §2

[9] = system: carbapenem-resistant Acinetobacter baumannii (CR-AB) 18-882; test: MIC, clinical drug-resistant bacteria; format: cell-based; conditions: CR-AB 18-882, read-out: Minimum inhibitory concentration against clinical drug-resistant bacteria
Procedure: as §1, §2

[10] = system: multidrug-resistant Pseudomonas aeruginosa (MDR-PA) 18-993; test: MIC, clinical drug-resistant bacteria; format: cell-based; conditions: MDR-PA 18-993, read-out: Minimum inhibitory concentration against clinical drug-resistant bacteria
Procedure: as §1, §2

[11] = system: methicillin-resistant Staphylococcus aureus (MRSA) 18-575; test: MIC, clinical drug-resistant bacteria; format: cell-based; conditions: MRSA 18-575, read-out: Minimum inhibitory concentration against clinical drug-resistant bacteria
Procedure: as §1, §2

[12] = system: multidrug-resistant Klebsiella pneumoniae (MDR-KP) 18-893; test: MIC, clinical drug-resistant bacteria; format: cell-based; conditions: MDR-KP 18-893, read-out: Minimum inhibitory concentration against clinical drug-resistant bacteria
Procedure: as §1, §2

[13] = system: vancomycin-resistant Enterococcus faecalis (VRE) 18-80; test: MIC, clinical drug-resistant bacteria; format: cell-based; conditions: VRE 18-80; read-out: Minimum inhibitory concentration against clinical drug-resistant bacteria
Procedure: as §1, §2

[14] = system: multidrug-resistant Pseudomonas aeruginosa (MDR-PA) 18-126; test: MIC, clinical drug-resistant bacteria; format: cell-based; conditions: MDR-PA 18-126, read-out: Minimum inhibitory concentration against clinical drug-resistant bacteria
Procedure: as §1, §2

[15] = system: vancomycin-resistant Enterococcus faecalis (VRE) 18-507; test: MIC, clinical drug-resistant bacteria; format: cell-based; conditions: VRE 18-507; read-out: Minimum inhibitory concentration against clinical drug-resistant bacteria
Procedure: as §1, §2

physchem = conditions: thermodynamic from solid
Procedure: Experimental method: representative compounds 2, 4 and 7 were selected for solubility determination, and retapamulin hydrochloride was used as a control. 1 mg of each sample was taken and quantitatively dissolved in a 10 mL volumetric flask, and the absorption peak area was measured by a high-performance liquid chromatography; then, the saturated solutions of the representative compounds 2, 4 and 7 and the control drug retapamulin were diluted 10-fold, and the absorption peak area was determined by HPLC; their respective solubility was obtained by calculating the absorption peak area.
The experimental instrument was Shimadzu LC-16, the chromatographic column was Hypersil C18 ODS (4.6×250 mm×5 μm), the flow rate was 1.0 mL/min, the detection wavelength was 300 nm, and the mobile phase was 0.05 mol/L of aqueous acetic acid solution:acetonitrile=30:70.

[16] = system: Escherichia coli ATCC 25922; test: MIC, microbroth dilution, standard strains; format: cell-based; conditions: ATCC25922, ATCC 25922, read-out: Minimum inhibitory concentration
Procedure: (§3) The minimum inhibitory concentration (MIC) of the pleuromutilin derivative containing thiazole-pyridine benzyl quaternary ammonium salt side chain was tested with moxifloxacin as a positive control (purchased from Shanghai Macklin Biochemical Technology Co., Ltd.) using a microbroth dilution method.
(§4) Standard strains include gram-positive bacteria: Staphylococcus epidermidis ATCC 12228, Staphylococcus aureus ATCC 29213, ATCC 25923 and methicillin-resistant Staphylococcus aureus ATCC 33591; gram-negative bacteria: Salmonella ATCC 14028, Acinetobacter baumannii ATCC 19606, Escherichia coli ATCC 25922 and CMCC 44103, all the strains were purchased from the American Type Culture Collection.

[17] = system: Staphylococcus aureus ATCC 29213; test: MIC, microbroth dilution, standard strains; format: cell-based; conditions: ATCC29213, ATCC 29213, read-out: Minimum inhibitory concentration
Procedure: as §3, §4

Salmonella ATCC 14028 = test: MIC, microbroth dilution, standard strains; format: cell-based; conditions: ATCC14028, ATCC 14028, read-out: Minimum inhibitory concentration
Procedure: as §3, §4

[18] = system: methicillin-resistant Staphylococcus aureus ATCC 33591; test: MIC, microbroth dilution, standard strains; format: cell-based; conditions: ATCC33591, ATCC 33591, read-out: Minimum inhibitory concentration
Procedure: as §3, §4

[19] = system: Staphylococcus epidermidis ATCC 12228; test: MIC, microbroth dilution, standard strains; format: cell-based; conditions: ATCC12228, ATCC 12228, read-out: Minimum inhibitory concentration
Procedure: as §3, §4

[20] = system: Staphylococcus aureus ATCC 25923; test: MIC, microbroth dilution, standard strains; format: cell-based; conditions: ATCC25923, ATCC 25923, read-out: Minimum inhibitory concentration
Procedure: as §3, §4

[21] = system: Escherichia coli CMCC 44103; test: MIC, microbroth dilution, standard strains; format: cell-based; conditions: CMCC44103, CMCC 44103, read-out: Minimum inhibitory concentration
Procedure: as §3, §4

[22] = system: Acinetobacter baumannii ATCC 19606; test: MIC, microbroth dilution, standard strains; format: cell-based; conditions: ATCC19606, ATCC 19606, read-out: Minimum inhibitory concentration
Procedure: as §3, §4

[23] = system: Mycoplasma gallisepticum R strain (MG-R); test: Anti-mycoplasma activity assay, MIC; format: cell-based; conditions: Mycoplasmoides gallisepticum
Procedure: (§5) The minimum inhibitory concentration of the pleuromutilin derivative containing thiazole-pyridine benzyl quaternary ammonium salt side chain against different mycoplasmas was tested with tiamulin as (purchased from Shanghai Yuanye Bio-Technology Co., Ltd) a positive control using a microbroth dilution method, and the antibacterial effect of the compound against different mycoplasmas was evaluated.
(§6) Experimental strains include Mycoplasma hyopneumoniae standard strain J strain (Mhp-J; NCTC 10110), Mycoplasma hyopneumoniae clinical isolate LH strain (Mhp-LH), Mycoplasma hyorhini standard strain BTS-7 strain (Mhr-BTS-7; NCTC 10130), Mycoplasma gallisepticum R strain (MG-R) and Mycoplasma synoviae WVU1853 strain (MS-WVU1853; NCTC 10124) (purchased from National Collection of Type Cultures, United Kingdom).
(§7) The specific operation steps are as follows: • (1) preparation of KM2 medium: 38.9 g of KM2 medium (purchased from Guangdong Huankai Microbial Sci. & Tech. Co., Ltd.) was weighed, added to 800 mL of distilled water, boiled and dissolved, and autoclaved at 115° C. for 20 min for later use. • (2) preparation of bacterial liquid stock: 0.5 mL of each of Mycoplasma hyopneumoniae (Mhp), Mycoplasma hyorhina (Mhr), Mycoplasma gallisepticum (MG) and Mycoplasma synoviae (MS) was taken and transferred to 4.5 mL of KM2 liquid medium, and when the colour of the medium turned yellow, each of the bacteria was sub-packaged at 0.5 mL per tube, and stored as the bacterial liquid at −70° C. • (3) determination of bacterial liquid titre (colour change unit, CCU): 96-well plate method was used to measure the bacterial liquid titre. The preserved bacterial liquid stock was taken from −70° C., melt and equilibrated to room temperature. 0.18 mL of KM2 medium was added to each well of the middle 4 rows of the 96-well plate (that is, 4 parallels), 0.02 mL of the bacterial liquid stock was taken and added to the wells of the first column, respectively, and subjected to 10-fold dilution until 10^−11. A negative control containing only KM2 medium was set (column 12). The plate was sealed and put into an incubator at 37° C., and the results were observed day by day. The highest dilution at which the colour of the medium can change was the CCU/mL of the strain. • (4) determination of MIC: the minimum inhibitory concentration of the compound against mycoplasmas was determined by a microbroth dilution method. Each drug to be tested was prepared as a stock solution with a concentration of 2560 μg/mL, and each drug stock solution was 2-fold diluted with KM2 liquid medium, and the test concentration range was 0.015-128 μg/mL (large concentration gradient) and 0.000004-0.06 μg/mL (small concentration gradient). An appropriate amount of seed bacterial liquid was taken and diluted to 10^4 CCU/mL serially according to its titre. Drugs of various dilutions were added sequentially to the 96-well plate, and then an equal amount of diluted bacterial liquid was added. 200 μL of diluted mycoplasma liquid was set as a positive control, 200 μL of KM2 liquid culture medium was set as a negative control, and a solvent control group (10 μL of drug solvent+190 μL of mycoplasma liquid) was also set. Three parallels were set for each experiment. After all the culture plates were sealed, they were allowed to culture at 37° C. and observed daily, and the final MIC values were recorded. (See FIG. 22 for the MIC determination results of the representative compound 7 against 5 mycoplasma strains)

[24] = system: Mycoplasma synoviae WVU1853 strain (MS-WVU1853; NCTC 10124); test: Anti-mycoplasma activity assay, MIC; format: cell-based; conditions: Mycoplasmopsis synoviae, NCTC10124
Procedure: as §5, §6, §7

[25] = system: Mycoplasma hyopneumoniae clinical isolate LH strain (Mhp-LH); test: Anti-mycoplasma activity assay, MIC; format: cell-based; conditions: Mesomycoplasma hyopneumoniae
Procedure: as §5, §6, §7

[26] = system: Mycoplasma hyopneumoniae standard strain J strain (Mhp-J; NCTC 10110); test: Anti-mycoplasma activity assay, MIC; format: cell-based; conditions: Mesomycoplasma hyopneumoniae, NCTC10110
Procedure: as §5, §6, §7

[27] = system: Mycoplasma hyorhini standard strain BTS-7 strain (Mhr-BTS-7; NCTC 10130); test: Anti-mycoplasma activity assay, MIC; format: cell-based; conditions: NCTC10130
Procedure: as §5, §6, §7

Structure (SMILES): C=C[C@]1(C)C[C@@H](OC(=O)CSc2nc(-c3cc[n+](Cc4ccc(OC)cc4)cc3)cs2)[C@]2(C)[C@H](C)CC[C@]3(CCC(=O)[C@H]32)[C@@H](C)[C@@H]1O [Compound 4, 1-(4-(methoxy)benzyl)-4-(2-(8-hydroxy-4,7,9,12-tetramethyl-3-oxo-7-vinyldecahydro-4,9a-propancyclopent[8]cyclen-5-yl)oxy)-2-oxoethyl)thiazol-4-yl)pyridyl bromide salt]
- MIC [1]: 32 µg/mL
- MIC [2]: 16 µg/mL
- MIC [3]: > 128 µg/mL
- MIC [4]: 64 µg/mL
- MIC [5]: > 128 µg/mL
- MIC [6]: > 128 µg/mL
- MIC [7]: 128 µg/mL
- MIC [8]: 64 µg/mL
- MIC [9]: 8 µg/mL
- MIC [10]: 64 µg/mL
- MIC [11]: > 128 µg/mL
- MIC [12]: 64 µg/mL
- MIC [13]: 2 µg/mL
- MIC [14]: 64 µg/mL
- MIC [15]: > 128 µg/mL
- solubility (physchem; organic solvent or mixture): 11900 µg/mL
- solubility (physchem; pH 1.5, simulated gastric fluid): 3120 µg/mL
- solubility (physchem; pH 7, water): 2320 µg/mL
- MIC [16]: 0.5 µg/mL
- MIC [17]: 0.5 µg/mL
- MIC (Salmonella ATCC 14028): 0.5 µg/mL
- MIC [18]: 1 µg/mL
- MIC [19]: 1 µg/mL
- MIC [20]: 0.5 µg/mL
- MIC [21]: 1 µg/mL
- MIC [22]: 2 µg/mL

Structure (SMILES): C=C[C@]1(C)C[C@@H](OC(=O)CSCCN(CC)CC)[C@]2(C)[C@H](C)CC[C@]3(CCC(=O)[C@H]32)[C@@H](C)[C@@H]1O [Tiamulin, tiamulin, reference compound]
- MIC [23]: 0.125 µg/mL (≈ 0.253 µM)
- MIC [24]: 2 µg/mL (≈ 4.05 µM)
- MIC [25]: 0.015 µg/mL (≈ 0.0304 µM)
- MIC [26]: 0.03 µg/mL (≈ 0.0608 µM)
- MIC [27]: 0.03 µg/mL (≈ 0.0608 µM)
- MIC [16]: 128 µg/mL (≈ 259 µM)
- MIC [17]: > 128 µg/mL
- MIC (Salmonella ATCC 14028): 128 µg/mL (≈ 259 µM)
- MIC [18]: 128 µg/mL (≈ 259 µM)
- MIC [19]: 16 µg/mL (≈ 32.4 µM)
- MIC [20]: 64 µg/mL (≈ 130 µM)
- MIC [21]: 64 µg/mL (≈ 130 µM)
- MIC [22]: 64 µg/mL (≈ 130 µM)
